The target in this experiment is T1, IRAK4 (Homo sapiens, UniProt Q9NWZ3).
T1 construct: endogenous in cells; host or cells: THP-1 cells
T1 sequence (Q9NWZ3 1-460): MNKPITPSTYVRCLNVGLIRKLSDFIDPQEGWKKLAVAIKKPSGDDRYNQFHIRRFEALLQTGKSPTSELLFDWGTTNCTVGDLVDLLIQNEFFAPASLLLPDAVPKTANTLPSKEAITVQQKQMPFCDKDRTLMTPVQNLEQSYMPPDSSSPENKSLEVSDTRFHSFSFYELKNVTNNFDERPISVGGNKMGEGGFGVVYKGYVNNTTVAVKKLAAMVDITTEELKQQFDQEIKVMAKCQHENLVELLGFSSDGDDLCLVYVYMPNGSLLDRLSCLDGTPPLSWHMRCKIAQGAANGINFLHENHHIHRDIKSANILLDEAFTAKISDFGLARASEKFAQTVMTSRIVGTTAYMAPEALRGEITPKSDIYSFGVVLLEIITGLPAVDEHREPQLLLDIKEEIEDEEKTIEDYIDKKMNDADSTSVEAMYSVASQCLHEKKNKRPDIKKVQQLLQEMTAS
The experiment can be described thus: LVL THP1 HTRF (THP1 Homogeneous Time Resolved Fluorescence). It counts as cell-based. Particulars: THP1 cells, 18 h incubation with compound; for DC50: read-out: LVL THP1 HTRF EC50. The method in brief:
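IRAK4 HTRF read-out (665/615 nm ratio, anti-IRAK4 d2 acceptor and K donor, 18 h dark incubation at room temperature) on lysates of THP-1 cells. Cells were treated 18 h at 37° C. with 20 nL compound in DMSO, in colorless RPMI with 10% FBS, with a duplicate CTG plate.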
In general terms: Time-resolved FRET reads energy transfer from a long-lived donor to a nearby acceptor.

Structures can show the parent of a compound that is named as a salt.

Turning to `C[C@H](C#N)Nc1cc(-n2ncc3cc(C#N)cnc32)ncc1-n1cc([C@H]2CC[C@H](CCN3CCC(n4nc(N5CCC(=O)NC5=O)c5ccccc54)CC3)CC2)nn1` [P-351], the “LVL THP1 HTRF YMIN” value amounted to 69.0%.

For the compound `C[C@H](C#N)Nc1cc(-n2ncc3cncnc32)ncc1-n1cc([C@H]2CC[C@H](CCN3CCN(c4ccc(C5CCC(=O)NC5=O)cc4)CC3)CC2)nn1` (some centres unmarked) [P-218], the DC50 is 6 nM. Regarding `COc1cc([C@@]2(C)CCC(=O)NC2=O)ccc1N1CCN(CC[C@H]2CC[C@H](c3cn(-c4cnc(-n5ncc6cc(C#N)c(N)nc65)cc4N[C@H](C)C#N)nn3)CC2)C[C@H]1C` (single isomer, unassigned) [P-305], the “LVL THP1 HTRF YMIN” value stood at 84.3% and the DC50 worked out at 0.2 nM.

For `CC[C@H]1CN(CC[C@H]2CC[C@H](c3cn(-c4cnc(-n5ncc6cc(C#N)cnc65)cc4N[C@H](C)C#N)nn3)CC2)CCN1c1ccc(C2CCC(=O)NC2=O)cc1` (some centres unmarked) [P-442], the “LVL THP1 HTRF YMIN” value is on record as −2.0% and the DC50 amounted to 4.4 nM. Consider `CC(F)(F)CNc1cc(-n2ncc3cc(C#N)c(N)nc32)ncc1C(=O)N[C@H]1CC[C@H](CCN2CCN(c3ccc(C4CCC(=O)NC4=O)cc3)CC2)CC1` (some centres unmarked) [P-185], for which the “LVL THP1 HTRF YMIN” value is recorded as 1.5% and the DC50 came out at 17 nM. In the case of `CC[C@H]1CN(CC[C@H]2CC[C@H](c3cn(-c4cnc(-n5ncc6cc(C#N)cnc65)cc4N[C@H](C)C#N)nn3)CC2)CCN1c1ccc(N2CCC(=O)NC2=O)cc1` [P-445], the “LVL THP1 HTRF YMIN” value is 4.0% and the DC50 came out at 65.8 nM. In the case of `C[C@H](C#N)Nc1cc(-n2ncc3cc(C#N)cnc32)ncc1C(=O)N[C@H]1CC[C@H](CCN2CC[C@H]3[C@@H]2CCN3c2ccc(N3CCC(=O)NC3=O)c(F)c2)CC1` [P-484], the “LVL THP1 HTRF YMIN” value was 52.3% and the DC50 is 1000 nM. The corresponding values for `N#Cc1cnc2c(cnn2-c2cc(N[C@@H]3CCOC3)c(-n3cc([C@H]4CC[C@H](CCN5CCN(c6ccc(C7CCC(=O)NC7=O)cc6)CC5)CC4)nn3)cn2)c1` (stereo in doubt) [P-405] are 3.1% and 4.8 nM. As for `C[C@H](C#N)Nc1cc(-n2ncc3cc(C#N)cnc32)ncc1-n1cc([C@H]2CC[C@H](CCN3CCC(n4ccc(C5CCC(=O)NC5=O)cc4=O)CC3)CC2)nn1` (some centres unmarked) [P-350], the “LVL THP1 HTRF YMIN” value was 3.7% and the DC50 is 2.2 nM. As for `C[C@H](C#N)Nc1cc(-n2ncc3cc(C#N)cnc32)ncc1-n1cc([C@H]2CC[C@H](C(Cl)CN3CCN(c4ccc(C5CCC(=O)NC5=O)cc4)CC3)CC2)nn1` (stereo partly drawn) [P-199, 1-(5-(4-((1R,4R)-4-((1R)-1-chloro-2-(4-(4-(2,6-dioxopiperidin-3-yl)phenyl)piperazin-1-yl)ethyl)cyclohexyl)-1H-1,2,3-triazol-1-yl)-4-(((R)-1-cyanoethyl)amino)pyridin-2-yl)-1H-pyrazolo[3,4-b]pyridine-5-carbonitrile.TFA], the “LVL THP1 HTRF YMIN” value was 2.7% and the DC50 turned out to be 2 nM. In the case of `C[C@H](C#N)Nc1cc(-n2ncc3cnc(N)nc32)ncc1-n1cc(C2CCC(CCN3CCN(c4ccc(C5CCC(=O)NC5=O)cc4)CC3)CC2)nn1` (some centres unmarked) [P-231], the “LVL THP1 HTRF YMIN” value came out at 1.37%. With `C[C@H](C#N)Nc1cc(-n2ncc3cc(C#N)cnc32)ncc1-n1cc([C@H]2CC[C@H](CCN3CCC(c4ccc(NC5CCC(=O)NC5=O)cc4)CC3)CC2)nn1` (some centres unmarked) [P-343], the “LVL THP1 HTRF YMIN” value came to 87.0% and the DC50 was 103 nM. The corresponding values for `C[C@H](C#N)Nc1cc(Nc2ncc(C#N)cn2)ncc1-n1cc([C@H]2CC[C@H](CCN3CCN(c4ccc(N5CCC(=O)NC5=O)cc4)[C@H](C)C3)CC2)nn1` [P-387] are 9.8% and 14.1 nM. Take `C[C@H](C#N)Nc1cc(-n2ncc3cc(C#N)cnc32)ncc1-n1cc([C@H]2CC[C@H](CCN3CC[C@H]4[C@@H]3CCN4c3ccc([C@@]4(C)CCC(=O)NC4=O)nc3)CC2)nn1` (single isomer, unassigned) [P-418]: the “LVL THP1 HTRF YMIN” value came out at 1.8% and the DC50 worked out at 14.9 nM. Taken in the same sequence, the figures for `C[C@H](C#N)Nc1cc(-n2ncc3cc(C#N)c(N)nc32)ncc1C(=O)N[C@H]1CC[C@H](CCN2CCN(c3ccc(C4CCC(=O)NC4=O)c(Cl)c3)[C@H](C)C2)CC1` (some centres unmarked) [P-187] were 1.4% and 20 nM. In the case of `C[C@H](C#N)Nc1cc(-n2ncc3cc(C#N)cnc32)ncc1-n1cc([C@H]2CC[C@H](CCN3CCN(c4ccc(NC5CCC(=O)NC5=O)cc4)CC3)CC2)nn1` (some centres unmarked) [P-368], the “LVL THP1 HTRF YMIN” value is 2.9% and the DC50 is 4.4 nM. Turning to `O=C1CCC(N2C(=O)c3ccc(NCCCNC(=O)C4CCC(NC(=O)c5cnc(Nc6ccc7ncsc7c6)cc5NC5CCCC5)CC4)cc3C2=O)C(=O)N1` (centres unmarked) [P-1], the “LVL THP1 HTRF YMIN” value is on record as 33.3% and the DC50 is 148 nM. The corresponding values for `C[C@H](C#N)Nc1cc(-n2ncc3cc(C#N)cnc32)ncc1C(=O)N[C@H]1CC[C@H](CCN2C3COCC2CN(c2ccc(C4CCC(=O)NC4=O)cc2)C3)CC1` (some centres unmarked) [P-189] are 25.3% and 54 nM. With `C[C@H](C#N)Nc1cc(-n2ncc3cc(C#N)cnc32)ncc1-n1cc([C@H]2CC[C@H](CCN3CCC(n4cc(C5CCC(=O)NC5=O)cn4)CC3)CC2)nn1` (some centres unmarked) [P-346], the “LVL THP1 HTRF YMIN” value came out at 17.5% and the DC50 came to 92.8 nM. Regarding `C[C@H](C#N)Nc1cc(-n2ncc3cc(C#N)cnc32)ncc1-n1cc([C@H]2CC[C@H](CCN3CC[C@H](Oc4ccc(N5CCC(=O)NC5=O)cc4)C3)CC2)nn1` [P-465], the “LVL THP1 HTRF YMIN” value was found to be 18.9% and the DC50 came to 293 nM. For `CC(C)(O)CNc1cc(-n2ncc3cc(C#N)cnc32)ncc1-n1cc([C@H]2CC[C@H](CCN3CCN(c4ccc(C5CCC(=O)NC5=O)cc4)CC3)CC2)nn1` (some centres unmarked) [P-391], the “LVL THP1 HTRF YMIN” value is reported as −0.8% and the DC50 worked out at 3.7 nM. For `C[C@H](C#N)Nc1cc(-n2ncc3cc(C#N)cnc32)ncc1-n1cc([C@H]2CC[C@H](CCN3CC(Oc4ccc(N5CCC(=O)NC5=O)cc4)C3)CC2)nn1` [P-324], the “LVL THP1 HTRF YMIN” value is given as 107.9% and the DC50 came out at 1000 nM. On to `C[C@H](C#N)Nc1cc(-n2ncc3cc(C#N)c(N)nc32)ncc1-n1cc([C@H]2CC[C@H](CCN3[C@H](C)CN(c4ccc([C@@]5(C)CCC(=O)NC5=O)cn4)C[C@H]3C)CC2)nn1` (single isomer, unassigned) [P-255], for which the “LVL THP1 HTRF YMIN” value turned out to be 90.4% and the DC50 is 12.4 nM. For the compound `C[C@H](C#N)Nc1cc(-n2ncc3cc(C#N)cnc32)ncc1-c1cc(C2CCC(CCN3CCN(c4ccc(C5CCC(=O)NC5=O)cc4)CC3)CC2)no1` (some centres unmarked) [P-211], the “LVL THP1 HTRF YMIN” value is on record as 1.1%. In the case of `C[C@H](C#N)Nc1cc(-n2ncc3cc(C#N)cnc32)ncc1-n1cc([C@H]2CC[C@H](CCN3CCC(c4ccc(N5CCC(=O)NC5=O)cc4)C(F)C3)CC2)nn1` (some centres unmarked) [P-399], the “LVL THP1 HTRF YMIN” value is on record as 8.2% and the DC50 worked out at 43.1 nM. `C[C@H](C#N)Nc1cc(-n2ncc3cc(C#N)cnc32)ncc1-n1cc([C@H]2CC[C@H](CCN3CC[C@H]4[C@@H]3CCN4c3ccc([C@@]4(C)CCC(=O)NC4=O)cn3)CC2)nn1` (single isomer, unassigned) [P-435]: the “LVL THP1 HTRF YMIN” value was found to be 52.3% and the DC50 turned out to be 123 nM. As to `C[C@H](C#N)Nc1cc(-n2ncc3cc(C#N)cnc32)ncc1-n1cc([C@H]2CC[C@H](CCN3CCN(c4ccc(N5CCC(=O)NC5=O)c(Cl)c4)CC3)CC2)nn1` [P-364], the “LVL THP1 HTRF YMIN” value was 3.1% and the DC50 is 1.8 nM. Take `C[C@H](C#N)Nc1cc(-n2ncc3cc(C#N)cnc32)ncc1-n1cc([C@H]2CC[C@H](CCN3CCC(c4ccc([C@@]5(C)CCC(=O)NC5=O)cc4)C(F)C3)CC2)nn1` (stereo in doubt) [P-310]: the “LVL THP1 HTRF YMIN” value is given as 1.3% and the DC50 was 3.6 nM.

With `COc1cnc(Nc2cc(N[C@H](C)C#N)c(-n3cc([C@H]4CC[C@H](CCN5CCN(c6ccc(C7CCC(=O)NC7=O)cc6)CC5)CC4)nn3)cn2)nc1` (some centres unmarked) [P-398], the “LVL THP1 HTRF YMIN” value is 5.8% and the DC50 is 24 nM.

For the compound `C[C@H](C#N)Nc1cc(-n2ncc3cc(C#N)c(N)nc32)ncc1-n1cc(C2CCC(CCN3CCC(c4ccc(C5CCC(=O)NC5=O)cc4)CC3)CC2)nn1` (some centres unmarked) [P-214], the “LVL THP1 HTRF YMIN” value is recorded as less than 0.5%. On to `C[C@H](C#N)Nc1cc(-n2ncc3cc(C#N)c(N)nc32)ncc1-n1cc([C@H]2CC[C@H](CCN3CCN(c4ccc(N5CCC(=O)NC5=O)cn4)CC3)CC2)nn1` [P-428], for which the “LVL THP1 HTRF YMIN” value is −0.6% and the DC50 came out at 3.2 nM.

Take `C[C@H](C#N)Nc1cc(-n2ncc3cc(C#N)cnc32)ncc1-n1cc([C@H]2CC[C@H](CCN3CCC(c4ccc([C@@]5(C)CCC(=O)NC5=O)cc4)CC3)CC2)nn1` [P-233]: the DC50 turned out to be 8 nM. As for `C[C@H](C#N)Nc1cc(-n2ncc3cc(C#N)cnc32)ncc1-n1cc([C@H]2CC[C@H](CCN3CCC(c4ccc(N5CCC(=O)NC5=O)cc4)CC3)CC2)nn1` [P-340], the “LVL THP1 HTRF YMIN” value turned out to be 22.4% and the DC50 stood at 582 nM. In the case of `CC1CN(CC[C@H]2CC[C@H](c3cn(-c4cnc(-n5ncc6cc(C#N)cnc65)cc4N[C@H](C)C#N)nn3)CC2)CCC1c1ccc([C@@]2(C)CCC(=O)NC2=O)cc1` (some centres unmarked) [P-285], the “LVL THP1 HTRF YMIN” value is 10.4% and the DC50 worked out at 18.5 nM.

The record behind these values is patent publication US20240109881A1, “Heteroaryl Compounds as Ligand Directed Degraders of IRAK4” (Bristol-Myers Squibb Company, priority 2022, published 2024).
